Measured values taken from patent US8987314B2, “Amide, urea or sulfone amide linked benzothiazole inhibitors of endothelial lipase” (Bristol-Myers Squibb Company, priority 2012, dated 2015).

The compounds below were run against Endothelial lipase (EL) (Homo sapiens (Human), UniProt Q9Y5X9) (assay: EL assay: endothelial lipase activity with fluorescent substrate A10070 in DMPG vesicles). Settings: EL from conditioned media of HT-1080 cells; 30 min incubation with compound at 37° C.; A10070/DMPG vesicles.
Assay type: biochemical
Experimental: Endothelial lipase (EL) and hepatic lipase (HL) activities were measured using a fluorescent substrate, A10070, (Invitrogen, CA) doped into an artificial vesicle containing DMPG (Avanti Polar Lipids) as the excipient. Vesicles were prepared by combining 571 μL of 29 mM DMPG in a 1:1 mixture of MeOH and CHCl3 with 2000 μL of 1 mM A10070 in a 1:1 mixture of MeOH and CHCl3. The mixture was dried under nitrogen in multiple vials then resuspended in 20 mL total volume of 50 mM HEPES pH 8.0 buffer containing 50 mM NaCl and 0.2 mM EDTA. The sample was allowed to sit at room temperature for 15 min and then was sonicated 3×4 mins on ice with a Branson Sonicator using duty cycle 1. This preparation provides vesicles with a mole fraction of 0.11 for the FRET substrate.
The enzymatic assay was measured using 384-well white Optiplates. Each well contained 20 μL of assay buffer (50 mM HEPES pH 8.0, 50 mM NaCl and 1 mM CaCl2) and 0.25 μL of a DMSO solution containing a compound of interest. EL or HL (10 μL) was added and allowed to incubate with the compound for 30 min at 37° C. The source of EL was conditioned media obtained from HT-1080 cells that were transformed using RAGE technology (Athersys) to overexpress endogenous EL, and HL was partially purified from conditioned media obtained from COS cells overexpressing HL. The reaction was started by the addition of 10 μL of a 1:10 dilution of vesicles. The final total reaction volume was […]. The reaction rates were measured on a Gemini plate reader with an excitation wavelength of 490 nm and an emission wavelength of 530 nm. Readings were taken over a period of 60 minutes, and the slope between 300 and 900 secs of the readout was used to calculate the rate of the reaction.

Sequence of Endothelial lipase (EL) (Q9Y5X9 21-500): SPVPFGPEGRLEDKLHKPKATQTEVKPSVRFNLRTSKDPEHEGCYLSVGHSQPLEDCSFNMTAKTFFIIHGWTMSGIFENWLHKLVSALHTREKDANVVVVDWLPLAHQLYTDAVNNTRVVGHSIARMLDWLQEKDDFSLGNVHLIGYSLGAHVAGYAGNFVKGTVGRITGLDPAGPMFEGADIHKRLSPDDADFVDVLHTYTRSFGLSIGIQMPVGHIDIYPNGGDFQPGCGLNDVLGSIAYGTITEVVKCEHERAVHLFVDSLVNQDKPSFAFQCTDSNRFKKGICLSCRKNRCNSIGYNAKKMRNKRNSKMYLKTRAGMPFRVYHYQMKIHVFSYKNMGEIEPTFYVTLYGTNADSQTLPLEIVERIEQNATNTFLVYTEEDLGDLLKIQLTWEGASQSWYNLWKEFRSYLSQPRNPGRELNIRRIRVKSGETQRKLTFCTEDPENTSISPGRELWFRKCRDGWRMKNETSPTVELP

SMILES | IC50
NS(=O)(=O)CCNC(=O)C(NC(=O)c1ccc(C(F)(F)F)cc1)c1nc2ccc(-c3ccc(F)nc3)cc2s1 (stereo not drawn) [Example A1, N-(1-(6-(6-Fluoropyridin-3-yl)benzo[d]thiazol-2-yl)-2-oxo-2-((2-sulfamoylethyl)amino)ethyl)-4-(trifluoromethyl)benzamide] | 0.035 µM
CCCC(=O)NC(C(=O)NCCS(N)(=O)=O)c1nc2ccc(-c3ccc(F)nc3)cc2s1 (stereo not drawn) [Example A3, N-(1-(6-(6-fluoropyridin-3-yl)benzo[d]thiazol-2-yl)-2-oxo-2-((2-sulfamoylethyl)amino)ethyl)butyramide] | < 0.01 µM
NS(=O)(=O)CCNC(=O)C(NC(=O)C(F)F)c1nc2ccc(-c3ccc(F)nc3)cc2s1 (stereo not drawn) [Example A4, 2-(2,2-difluoroacetamido)-2-(6-(6-fluoropyridin-3-yl)benzo[d]thiazol-2-yl)-N-(2-sulfamoylethyl)acetamide] | < 0.01 µM
CCCC(=O)NC(C(=O)NCCS(N)(=O)=O)c1nc2ccc(-c3ccc(C(=O)N4CCOCC4)cc3)cc2s1 (stereo not drawn) [Example A5, N-(1-(6-(4-(morpholine-4-carbonyl)phenyl)benzo[d]thiazol-2-yl)-2-oxo-2-((2-sulfamoylethyl)amino)ethyl)butyramide] | < 0.01 µM
NS(=O)(=O)CCNC(=O)C(NC(=O)c1cccnc1)c1nc2ccc(-c3ccc(C(=O)N4CCOCC4)cc3)cc2s1 (stereo not drawn) [Example A6, N-(1-(6-(4-(morpholine-4-carbonyl)phenyl)benzo[d]thiazol-2-yl)-2-oxo-2-((2-sulfamoylethyl)amino)ethyl)nicotinamide] | < 0.01 µM
NS(=O)(=O)CCNC(=O)C(NC(=O)c1ccc(C(F)(F)F)cc1)c1nc2ccc(-c3ccc(C(=O)N4CCOCC4)cc3)cc2s1 (stereo not drawn) [Example A7] | < 0.01 µM
CC(=O)NC(C(=O)NCc1nnc(C)o1)c1nc2ccc(-c3ccc(F)cc3)cc2s1 (stereo not drawn) [Example A8, 2-acetamido-2-(6-(4-fluorophenyl)benzo[d]thiazol-2-yl)-N-((5-methyl-1,3,4-oxadiazol-2-yl)methyl)acetamide] | < 0.01 µM
Cc1nnc(CNC(=O)C(NC(=O)NCc2ccccc2)c2nc3ccc(-c4ccc(F)cc4)cc3s2)o1 (stereo not drawn) [Example A9, 2-(3-Benzylureido)-2-(6-(4-fluorophenyl)benzo[d]thiazol-2-yl)-N-((5-methyl-1,3,4-oxadiazol-2-yl)methyl)acetamide] | 0.05 µM
CS(=O)(=O)C(C(=O)NCCS(N)(=O)=O)c1nc2ccc(-c3ccccc3)cc2s1 (stereo not drawn) [Example B1, 2-(Methylsulfonyl)-2-(6-phenylbenzo[d]thiazol-2-yl)-N-(2-sulfamoylethyl)acetamide] | < 0.01 µM
C=CCS(=O)(=O)C(C(=O)NCCS(N)(=O)=O)c1nc2ccc(-c3ccccc3)cc2s1 (stereo not drawn) [Example B2, 2-(Allylsulfonyl)-2-(6-phenylbenzo[d]thiazol-2-yl)-N-(2-sulfamoylethyl)acetamide] | < 0.01 µM
CS(=O)(=O)C(C(=O)NCCS(N)(=O)=O)c1nc2ccc(-c3ccc(F)nc3)cc2s1 (stereo not drawn) [Example B3, 2-(6-(6-fluoro-3-pyridinyl)-1,3-benzothiazol-2-yl)-2-(methylsulfonyl)-N-(2-sulfamoylethyl)acetamide] | < 0.01 µM
Cc1noc(C)c1-c1ccc2nc(C(C(=O)NCCS(N)(=O)=O)S(C)(=O)=O)sc2c1 (stereo not drawn) [Example B4, 2-(6-(3,5-dimethyl-4-isoxazolyl)-1,3-benzothiazol-2-yl)-2-(methylsulfonyl)-N-(2-sulfamoylethyl)acetamide] | 0.013 µM
NS(=O)(=O)CCNC(=O)C(c1nc2ccc(-c3ccc(F)nc3)cc2s1)S(=O)(=O)Cc1ccccc1 (stereo not drawn) [Example B5, 2-(benzylsulfonyl)-2-(6-(6-fluoro-3-pyridinyl)-1,3-benzothiazol-2-yl)-N-(2-sulfamoylethyl)acetamide] | < 0.01 µM
NS(=O)(=O)CCNC(=O)C(c1nc2ccc(-c3ccc(F)nc3)cc2s1)S(=O)(=O)Cc1ccc(C(F)(F)F)cc1 (stereo not drawn) [Example B6, 2-(6-(6-fluoro-3-pyridinyl)-1,3-benzothiazol-2-yl)-N-(2-sulfamoylethyl)-2-((4-(trifluoromethyl)benzyl)sulfonyl)acetamide] | < 0.01 µM
NS(=O)(=O)CCNC(=O)C(c1nc2ccc(-c3ccc(F)nc3)cc2s1)S(=O)(=O)CCC(F)(F)F (stereo not drawn) [Example B7, 2-(6-(6-fluoropyridin-3-yl)benzo[d]thiazol-2-yl)-N-(2-sulfamoylethyl)-2-((3,3,3-trifluoropropyl)sulfonyl)acetamide] | < 0.01 µM
CS(=O)(=O)C(C(=O)NCCS(N)(=O)=O)c1nc2ccc(-c3ccnc(F)c3)cc2s1 (stereo not drawn) [Example B8, 2-(6-(2-fluoro-4-pyridinyl)-1,3-benzothiazol-2-yl)-2-(methylsulfonyl)-N-(2-sulfamoylethyl)acetamide] | < 0.01 µM
CS(=O)(=O)C(C(=O)NCCS(N)(=O)=O)c1nc2ccc(-c3ccnc(Cl)c3)cc2s1 (stereo not drawn) [Example B9, 2-(6-(2-chloro-4-pyridinyl)-1,3-benzothiazol-2-yl)-2-(methylsulfonyl)-N-(2-sulfamoylethyl)acetamide] | < 0.01 µM
CS(=O)(=O)C(C(=O)NCCS(N)(=O)=O)c1nc2ccc(-c3ccc(Cl)nc3)cc2s1 (stereo not drawn) [Example B10, 2-(6-(6-chloro-3-pyridinyl)-1,3-benzothiazol-2-yl)-2-(methylsulfonyl)-N-(2-sulfamoylethyl)acetamide] | < 0.01 µM
CC(C)S(=O)(=O)C(C(=O)NCCS(N)(=O)=O)c1nc2ccc(-c3ccc(F)nc3)cc2s1 (stereo not drawn) [Example B12, 2-(6-(6-fluoro-3-pyridinyl)-1,3-benzothiazol-2-yl)-2-(isopropylsulfonyl)-N-(2-sulfamoylethyl)acetamide] | < 0.01 µM
CS(=O)(=O)C(C(=O)NCCS(N)(=O)=O)c1nc2ccc(-c3ccc(CN4CCOCC4)cc3)cc2s1 (stereo not drawn) [Example B13, 2-(methylsulfonyl)-2-(6-(4-(4-morpholinylmethyl)phenyl)-1,3-benzothiazol-2-yl)-N-(2-sulfamoylethyl)acetamide] | < 0.01 µM
C=CCS(=O)(=O)C(C(=O)NCCS(N)(=O)=O)c1nc2ccc(-c3ccc(CN4CCOCC4)cc3)cc2s1 (stereo not drawn) [Example B14, 2-(allylsulfonyl)-2-(6-(4-(4-morpholinylmethyl)phenyl)-1,3-benzothiazol-2-yl)-N-(2-sulfamoylethyl)acetamide] | < 0.01 µM
CCCS(=O)(=O)C(C(=O)NCCS(N)(=O)=O)c1nc2ccc(-c3ccnc(F)c3)cc2s1 (stereo not drawn) [Example B15, 2-(6-(2-fluoro-4-pyridinyl)-1,3-benzothiazol-2-yl)-2-(propylsulfonyl)-N-(2-sulfamoylethyl)acetamide] | < 0.01 µM
CC(=O)Nc1ccc(-c2ccc3nc(C(C(=O)NCCS(N)(=O)=O)S(C)(=O)=O)sc3c2)cc1 (stereo not drawn) [Example B16, 2-(6-(4-acetamidophenyl)-1,3-benzothiazol-2-yl)-2-(methylsulfonyl)-N-(2-sulfamoylethyl)acetamide] | 0.04 µM
CN(C)S(=O)(=O)c1ccc(-c2ccc3nc(C(C(=O)NCCS(N)(=O)=O)S(C)(=O)=O)sc3c2)cc1 (stereo not drawn) [Example B17, 2-(6-(4-(dimethylsulfamoyl)phenyl)-1,3-benzothiazol-2-yl)-2-(methylsulfonyl)-N-(2-sulfamoylethyl)acetamide] | < 0.01 µM
CNc1ccc(-c2ccc3nc(C(C(=O)NCCS(N)(=O)=O)S(C)(=O)=O)sc3c2)cc1 (stereo not drawn) [Example B18, 2-(6-(4-(methylamino)phenyl)-1,3-benzothiazol-2-yl)-2-(methylsulfonyl)-N-(2-sulfamoylethyl)acetamide] | 0.013 µM
COc1ccc(-c2ccc3nc(C(C(=O)NCCS(N)(=O)=O)S(C)(=O)=O)sc3c2)cn1 (stereo not drawn) [Example B19, 2-(6-(6-methoxy-3-pyridinyl)-1,3-benzothiazol-2-yl)-2-(methylsulfonyl)-N-(2-sulfamoylethyl)acetamide] | < 0.01 µM
CS(=O)(=O)C(C(=O)NCCS(N)(=O)=O)c1nc2ccc(-c3ccc(N4CCOCC4)cc3)cc2s1 (stereo not drawn) [Example B20, 2-(methylsulfonyl)-2-(6-(4-(4-morpholinyl)phenyl)-1,3-benzothiazol-2-yl)-N-(2-sulfamoylethyl)acetamide] | < 0.01 µM
CS(=O)(=O)C(C(=O)NCCS(N)(=O)=O)c1nc2ccc(-c3ccc(-n4cccn4)cc3)cc2s1 (stereo not drawn) [Example B21, 2-(methylsulfonyl)-2-(6-(4-(1H-pyrazol-1-yl)phenyl)-1,3-benzothiazol-2-yl)-N-(2-sulfamoylethyl)acetamide] | < 0.01 µM
COC(=O)Nc1ccc(-c2ccc3nc(C(C(=O)NCCS(N)(=O)=O)S(C)(=O)=O)sc3c2)cc1 (stereo not drawn) [Example B22, methyl (4-(2-(1-(methylsulfonyl)-2-oxo-2-((2-sulfamoylethyl)amino)ethyl)-1,3-benzothiazol-6-yl)phenyl)carbamate] | < 0.01 µM
CS(=O)(=O)CCNC(=O)C(c1nc2ccc(-c3ccnc(F)c3)cc2s1)S(C)(=O)=O (stereo not drawn) [Example B23, 2-(6-(2-Fluoro-4-pyridinyl)-1,3-benzothiazol-2-yl)-2-(methylsulfonyl)-N-(2-(methylsulfonyl)ethyl)acetamide] | 0.21 µM
